Numbers after ± are expanded uncertainties.
Assays:
[1] = refractive index (Na D-line) (dimensionless); conditions: 298.15 K; 101.33 kPa; Liquid; Standard Abbe refractometry
[2] = Liquid; for mass density: 298.15 K, 101.33 kPa; for vapor or sublimation pressure: refractive and density measurements

refractive index [1]	mass density [2] [kg/m3]	vapor or sublimation pressure ([2]; 353.89 K) [kPa]	vapor or sublimation pressure ([2]; 353.25 K) [kPa]	Compound	vapor or sublimation pressure ([2]; 404.82 K) [kPa]
1.4232 ± 0.00072	773.7 ± 0.3	101.3	–	C1CCCCC1 [cyclohexane]	–
1.49692 ± 0.00072	873.6 ± 0.2	–	101.3	c1ccccc1 [benzene]	–

Compound	refractive index [1]	mass density [2] [kg/m3]	vapor or sublimation pressure ([2]; 353.89 K) [kPa]	vapor or sublimation pressure ([2]; 353.25 K) [kPa]	vapor or sublimation pressure ([2]; 404.82 K) [kPa]
Clc1ccccc1 [chlorobenzene]	1.52176 ± 0.00075	1100.8 ± 0.5	–	–	101.3

Source: the NIST ThermoML archive (doi:10.1016/j.jct.2005.12.003)
